According to ChEMBL document CHEMBL1149945, “Synthesis and structure-activity relationships of potent retinoid X receptor ligands” (Bioorg Med Chem Lett, 1997):

Legend:
[1] = target: T1, Retinoic acid receptor gamma (Homo sapiens, UniProt P13631); assay: Inhibition of [3H]-ATRA binding to Retinoic acid receptor RAR gamma
T1 sequence (P13631 whole entry): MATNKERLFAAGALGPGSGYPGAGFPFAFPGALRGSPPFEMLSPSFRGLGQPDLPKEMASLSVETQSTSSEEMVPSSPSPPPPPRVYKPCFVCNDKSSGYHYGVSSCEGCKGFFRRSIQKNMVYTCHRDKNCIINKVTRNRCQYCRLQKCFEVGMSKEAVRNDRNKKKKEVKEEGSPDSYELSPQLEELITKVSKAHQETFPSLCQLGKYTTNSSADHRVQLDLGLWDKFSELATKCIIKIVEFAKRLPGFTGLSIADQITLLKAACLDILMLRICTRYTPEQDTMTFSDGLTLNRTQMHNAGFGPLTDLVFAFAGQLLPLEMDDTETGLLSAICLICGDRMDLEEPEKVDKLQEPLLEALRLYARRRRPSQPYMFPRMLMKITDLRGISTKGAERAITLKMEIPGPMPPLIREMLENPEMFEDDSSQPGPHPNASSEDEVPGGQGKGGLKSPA

[2] = target: T2, Retinoic acid receptor RXR-gamma (Mus musculus, UniProt P28705); assay: Inhibition of [3H]9-cis-RA binding to Retinoid X receptor RXR gamma
T2 sequence (P28705 whole entry): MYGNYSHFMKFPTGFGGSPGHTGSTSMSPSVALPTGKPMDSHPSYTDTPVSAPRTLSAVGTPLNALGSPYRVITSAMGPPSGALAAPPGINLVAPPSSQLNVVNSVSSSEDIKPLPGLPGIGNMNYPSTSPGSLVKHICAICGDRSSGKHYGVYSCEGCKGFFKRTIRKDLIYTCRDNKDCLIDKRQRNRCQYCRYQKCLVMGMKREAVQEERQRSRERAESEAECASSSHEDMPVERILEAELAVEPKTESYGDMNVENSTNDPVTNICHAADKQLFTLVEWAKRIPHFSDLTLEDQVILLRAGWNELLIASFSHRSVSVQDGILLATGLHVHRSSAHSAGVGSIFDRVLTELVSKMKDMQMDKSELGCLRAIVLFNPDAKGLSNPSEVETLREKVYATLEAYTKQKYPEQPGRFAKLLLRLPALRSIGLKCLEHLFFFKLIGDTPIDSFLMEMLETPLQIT

[3] = target: T3, Retinoic acid receptor beta (Homo sapiens, UniProt P10826); assay: Inhibition of [3H]ATRA binding to retinoic acid receptor RAR beta
T3 sequence (P10826 whole entry): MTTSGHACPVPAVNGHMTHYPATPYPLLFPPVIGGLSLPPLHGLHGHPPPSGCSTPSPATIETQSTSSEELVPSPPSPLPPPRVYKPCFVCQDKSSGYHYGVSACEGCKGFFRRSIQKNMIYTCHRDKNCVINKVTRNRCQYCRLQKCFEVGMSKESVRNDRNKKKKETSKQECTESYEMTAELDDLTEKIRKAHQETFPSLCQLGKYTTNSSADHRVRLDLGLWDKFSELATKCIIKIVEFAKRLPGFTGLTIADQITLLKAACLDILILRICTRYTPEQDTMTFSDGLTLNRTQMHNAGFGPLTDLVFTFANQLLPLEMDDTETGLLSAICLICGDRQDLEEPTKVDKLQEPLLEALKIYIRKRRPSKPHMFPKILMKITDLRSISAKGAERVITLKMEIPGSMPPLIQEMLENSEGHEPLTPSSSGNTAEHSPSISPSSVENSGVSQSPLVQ

[4] = target: T4, Retinoic acid receptor RXR-alpha (Homo sapiens, UniProt P19793); assay: Inhibition of [3H]9-cis-RA binding to Retinoid X receptor RXR alpha
T4 sequence (P19793 whole entry): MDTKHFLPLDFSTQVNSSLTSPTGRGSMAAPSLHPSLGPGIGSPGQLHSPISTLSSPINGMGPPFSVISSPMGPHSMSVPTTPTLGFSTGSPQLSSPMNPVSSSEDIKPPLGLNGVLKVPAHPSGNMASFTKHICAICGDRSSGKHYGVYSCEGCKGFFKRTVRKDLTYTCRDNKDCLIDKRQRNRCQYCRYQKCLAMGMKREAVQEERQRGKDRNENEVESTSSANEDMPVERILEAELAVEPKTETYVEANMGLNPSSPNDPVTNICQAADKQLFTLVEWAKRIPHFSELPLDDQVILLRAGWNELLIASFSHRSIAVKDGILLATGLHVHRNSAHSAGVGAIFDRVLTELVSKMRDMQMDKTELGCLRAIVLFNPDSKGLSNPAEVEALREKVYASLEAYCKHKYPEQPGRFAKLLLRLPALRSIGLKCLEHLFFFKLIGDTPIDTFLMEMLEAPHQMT

[5] = target: T2, Retinoic acid receptor RXR-gamma; assay: (§1) Effective potency in transcriptional activation assay in CV-1 cells expressing Retinoid X receptor RXR gamma; format: cell-based
[6] = target: T5, Retinoic acid receptor RXR-gamma (Mus musculus) (UniProt P28705); assay: Percent efficacy for Retinoid X receptor RXR gamma in CV-1 cell transcriptional activation assay; format: cell-based
T5 sequence (whole entry): T2 sequence (P28705 whole entry)

[7] = target: T6, Retinoic acid receptor alpha (Homo sapiens, UniProt P10276); assay: Effective potency in transcriptional activation assay in CV-1 cells expressing retinoic acid receptor RAR alpha; Not active; format: functional, cell-based
T6 sequence (P10276 whole entry): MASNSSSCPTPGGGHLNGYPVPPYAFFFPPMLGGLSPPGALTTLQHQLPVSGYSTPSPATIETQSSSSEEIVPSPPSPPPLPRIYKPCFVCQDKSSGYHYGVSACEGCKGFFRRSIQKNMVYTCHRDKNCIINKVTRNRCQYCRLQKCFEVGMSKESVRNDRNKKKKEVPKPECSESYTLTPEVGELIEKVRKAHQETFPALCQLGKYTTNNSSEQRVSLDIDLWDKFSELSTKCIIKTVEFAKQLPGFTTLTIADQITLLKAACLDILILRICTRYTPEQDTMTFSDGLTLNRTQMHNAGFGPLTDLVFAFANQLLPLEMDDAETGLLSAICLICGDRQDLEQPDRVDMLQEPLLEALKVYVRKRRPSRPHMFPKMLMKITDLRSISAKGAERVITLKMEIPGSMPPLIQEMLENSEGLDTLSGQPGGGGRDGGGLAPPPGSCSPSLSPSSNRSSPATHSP

[8] = target: T6, Retinoic acid receptor alpha; assay: Inhibition of [3H]ATRA binding to retinoic acid receptor RAR alpha
[9] = target: T1, Retinoic acid receptor gamma; assay: Effective potency in transcriptional activation assay in CV-1 cells expressing retinoic acid receptor RAR gamma; format: functional, cell-based
[10] = target: T4, Retinoic acid receptor RXR-alpha; assay: Effective potency in transcriptional activation assay in CV-1 cells expressing Retinoid X receptor RXR alpha; format: functional, cell-based
[11] = target: T7, Retinoic acid receptor RXR-beta (Mus musculus, UniProt P28704); assay: Effective potency in transcriptional activation assay in CV-1 cells expressing Retinoid X receptor RXR beta; format: functional, cell-based
T7 sequence (P28704 whole entry): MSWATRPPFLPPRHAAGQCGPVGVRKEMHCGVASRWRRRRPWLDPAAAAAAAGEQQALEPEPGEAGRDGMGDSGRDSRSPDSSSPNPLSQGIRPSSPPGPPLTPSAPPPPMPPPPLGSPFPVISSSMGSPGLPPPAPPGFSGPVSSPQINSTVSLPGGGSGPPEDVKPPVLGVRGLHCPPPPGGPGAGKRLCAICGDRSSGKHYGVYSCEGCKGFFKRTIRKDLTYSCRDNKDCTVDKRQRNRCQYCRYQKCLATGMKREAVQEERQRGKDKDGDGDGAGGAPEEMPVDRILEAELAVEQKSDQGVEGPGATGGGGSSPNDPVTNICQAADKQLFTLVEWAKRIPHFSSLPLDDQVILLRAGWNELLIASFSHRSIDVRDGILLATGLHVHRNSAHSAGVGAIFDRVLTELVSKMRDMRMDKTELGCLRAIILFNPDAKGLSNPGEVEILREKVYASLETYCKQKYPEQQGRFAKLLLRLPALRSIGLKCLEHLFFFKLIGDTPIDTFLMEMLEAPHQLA

[12] = target: T8, Retinoic acid receptor RXR-beta (Mus musculus) (UniProt P28704); assay: Percent efficacy for Retinoid X receptor RXR beta in CV-1 cell transcriptional activation assay; format: functional, cell-based
T8 sequence (whole entry): T7 sequence (P28704 whole entry)

[13] = target: T7, Retinoic acid receptor RXR-beta; assay: Inhibition of [3H]9-cis-RA binding to Retinoid X receptor RXR beta
[14] = target: T3, Retinoic acid receptor beta; conditions: cv-1
[15] = target: T2, Retinoic acid receptor RXR-gamma; assay: as §1; format: functional, cell-based
[16] = target: T1, Retinoic acid receptor gamma; conditions: cv-1
[17] = target: T3, Retinoic acid receptor beta; assay: Effective potency in transcriptional activation assay in CV-1 cells expressing retinoic acid receptor RAR beta; format: functional, cell-based

| SMILES | Ki [1] [µM] | Ki [2] [µM] | Ki [3] [µM] | Ki [4] [µM] | EC50 [5] [µM] | Efficacy [6] [%] | EC50 [7] | Ki [8] [µM] | EC50 [9] [µM] | EC50 [10] [µM] | EC50 [11] [µM] | Efficacy [12] [%] | Ki [13] [µM] | EC50 [14] | EC50 [15] [µM] | EC50 [16] | EC50 [17] [µM] |
| --- | --- | --- | --- | --- | --- | --- | --- | --- | --- | --- | --- | --- | --- | --- | --- | --- | --- |
| C=C1C[C@@H](/C=C/C(C)=C/C(=O)O)[C@@H](c2ccc3c(c2)C(C)(C)CCC3(C)C)C1 | > 1 | 0.161 | > 1 | 0.066 | – | 90 | Not Active | > 1 | – | 0.169 | 0.22 | 369 | 0.556 | Not Active | 0.204 | Not Active | – |
| C=C1C[C@H](c2ccc3c(c2)C(C)(C)CCC3(C)C)[C@@H](/C=C/C(C)=C/C(=O)O)C1 | > 1 | 0.054 | > 1 | 0.038 | 0.212 | 99 | Not Active | > 1 | 0.355 | 0.189 | 0.222 | 169 | 0.252 | – | – | – | 0.559 |
| CC(/C=C/[C@@H]1CCC[C@@H]1c1ccc2c(c1)C(C)(C)CCC2(C)C)=C\C(=O)O | > 1 | 0.026 | > 1 | 0.015 | 0.025 | 58 | Not Active | > 1 | – | 0.031 | 0.029 | 101 | 0.011 | Not Active | – | Not Active | – |
| CC(/C=C/[C@]1(C)CCCC1c1ccc2c(c1)C(C)(C)CCC2(C)C)=C\C(=O)O (single isomer, unassigned) | > 1 | 0.007 | > 1 | 0.004 | 0.044 | 38 | Not Active | > 1 | – | 0.062 | 0.062 | 50 | 0.01 | Not Active | – | Not Active | – |
| CC(/C=C/[C@H]1CCC[C@@H]1c1ccc2c(c1)C(C)(C)CCC2(C)C)=C\C(=O)O | > 1 | 0.005 | > 1 | 0.003 | 0.006 | 70 | Not Active | > 1 | 1.29 | 0.008 | 0.01 | 110 | 0.006 | – | – | – | 0.637 |
| CC(/C=C/C1=C(c2cc3c(cc2C)C(C)(C)CCC3(C)C)CCC1)=C\C(=O)O | > 1 | 0.022 | > 1 | 0.005 | 0.128 | 42 | Not Active | > 1 | – | 0.095 | 0.191 | 44 | 0.025 | Not Active | – | Not Active | – |
| C=C(c1ccc(C(=O)O)cc1)c1cc2c(cc1C)C(C)(C)CCC2(C)C | – | – | – | – | – | 85 | – | – | – | – | – | – | – | – | – | – | – |

The remaining lines, values ahead:

| Ki [1] [µM] | Ki [2] [µM] | Ki [3] [µM] | Ki [4] [µM] | EC50 [5] [µM] | Efficacy [6] [%] | EC50 [7] | Ki [8] [µM] | EC50 [9] [µM] | EC50 [10] [µM] | EC50 [11] [µM] | Efficacy [12] [%] | Ki [13] [µM] | EC50 [14] | EC50 [15] [µM] | EC50 [16] | EC50 [17] [µM] | SMILES |
| --- | --- | --- | --- | --- | --- | --- | --- | --- | --- | --- | --- | --- | --- | --- | --- | --- | --- |
| > 1 | 0.005 | > 1 | 0.003 | 0.003 | 77 | Not Active | > 1 | 0.209 | 0.004 | 0.003 | 92 | 0.01 | Not Active | – | – | – | CC(/C=C/[C@]12CCC[C@@]1(c1ccc3c(c1)C(C)(C)CCC3(C)C)C2)=C\C(=O)O |
| > 1 | 0.058 | > 1 | 0.02 | 0.04 | 62 | Not Active | > 1 | 1.15 | 0.053 | 0.042 | 70 | 0.036 | – | – | – | 0.339 | CC(/C=C/C1=C(c2ccc3c(c2)C(C)(C)CCC3(C)C)CCC1)=C\C(=O)O |
| > 1 | 0.007 | > 1 | 0.004 | 0.016 | 72 | Not Active | > 1 | 1.78 | 0.007 | 0.014 | 110 | 0.01 | – | – | – | 0.809 | CC(/C=C/[C@@]1(C)CCCC1c1ccc2c(c1)C(C)(C)CCC2(C)C)=C\C(=O)O (single isomer, unassigned) |
